Results on 36 molecules are retold here after patent publication US20250353841A1 (BIOGEN MA INC., priority 2022, published 2025).

This assay has as its system mutant Huntington (HTT) protein. Briefly: HTT Mutant HTRF iPSC assay (mHTT protein lowering). In kind it is cell-based. The following applies: human iPSC derived from a HTT patient with a poly-Q49 mutation.
With `COc1cc(-c2cc(F)c3nc(C)cn3c2)cc2cn(C3CCNCC3)nc12` [Compound 545, 5-(8-fluoro-2-methylimidazo[1,2-a]pyridin-6-yl)-7-methoxy-2-(piperidin-4-yl)-2H-indazole], the concentration for half-maximal inhibition (IC50) lay within 1000 to 9000 nM.

For `Cc1cn2nc(-c3cc(F)c4nc(C5CNC5)cn4c3)cc(C)c2n1` [Compound 64], the IC50 is 1000 to 9000 nM.

`Cc1cn2nc(-c3cc(F)c4nc(C(=O)NCC5CCCN5C)cn4c3)cc(C)c2n1` (stereo not drawn) [Compound 334, 6-(2,8-dimethylimidazo[1,2-b]pyridazin-6-yl)-8-fluoro-N-((1-methylpyrrolidin-2-yl)methyl)imidazo[1,2-a]pyridine-2-carboxamide] yielded an IC50 of 100 to 1000 nM.

`Cc1cn2nc(-c3cc(F)c4nc(C5CCN(C(C)C)CC5)cn4c3)cc(C)c2n1` [Compound 47, 6-(8-fluoro-2-(1-isopropylpiperidin-4-yl)imidazo[1,2-a]pyridin-6-yl)-2,8-dimethylimidazo[1,2-b]pyridazine] displayed a 50% inhibitory concentration (IC50) of less than 100 nM.

The molecule `Cc1cn2cc(-c3cc(Cl)c4oc(C5CCNCC5)nc4c3)cc(F)c2n1` [Compound 534, 7-chloro-5-(8-fluoro-2-methylimidazo[1,2-a]pyridin-6-yl)-2-(piperidin-4-yl)benzo[d]oxazole] returned an IC50 of 1000 to 9000 nM.

`Cc1cn2nc(-c3cc(F)c4nn(C5CCNCC5)nc4c3)cc(C(F)F)c2n1` [Compound 374, 6-[8-(difluoromethyl)-2-methyl-imidazo[1,2-b]pyridazin-6-yl]-4-fluoro-2-(4-piperidyl)benzotriazole]: the IC50 was less than 100 nM.

The molecule `Cc1cn2nc(-c3cc(F)c4nc(NC(=O)C5CCCNC5)nn4c3)cc(C)c2n1` (single isomer, unassigned) [Compound 316] gave an IC50 of 100 to 1000 nM.

`Cc1cn2nc(-c3cc(F)c4nc(NC(=O)C5CN(C(C)C)C5)nn4c3)cc(C)c2n1` [Compound 324, N-[6-(2,8-dimethylimidazo[1,2-b]pyridazin-6-yl)-8-fluoro-[1,2,4]triazolo[1,5-a]pyridin-2-yl]-1-isopropyl-azetidine-3-carboxamide] returned an IC50 of 1000 to 9000 nM.

As to `Cc1cn2nc(-c3cc(F)c4nc([C@H]5[C@@H]6CN(C7CC7)C[C@@H]65)cn4c3)cc(C)c2n1` [Compound 204, 6-(2-((1R,5S,6r)-3-cyclopropyl-3-azabicyclo[3.1.0]hexan-6-yl)-8-fluoroimidazo[1,2-a]pyridin-6-yl)-2,8-dimethylimidazo[1,2-b]pyridazine], the IC50 lay within 100 to 1000 nM.

`Cc1cn2nc(-c3cc(F)c4nc([C@@H]5CCNC5)cn4c3)cc(C)c2n1` (single isomer, unassigned) [Compound 189]: the half-inhibitory concentration (IC50) is less than 100 nM.

For the molecule `Cc1cn2nc(-c3cn4cc(C5CC6CCC(C5)N6)cc(F)c4n3)cc(C)c2n1` (stereo not drawn) [Compound 130], the half-inhibitory concentration (IC50) lay within 1000 to 9000 nM.

`Cc1cn2cc(-c3cc(F)c4nc(C5CCN(C)CC5)cn4c3)ccc2n1` [Compound 10, 8-fluoro-2′-methyl-2-(1-methylpiperidin-4-yl)-6,6′-biimidazo[1,2-a]pyridine] gave an IC50 of 1000 to 9000 nM.

The molecule `Cc1cn2nc(-c3cc(F)c4nc([C@H]5C[C@@H](C)N[C@@H](C)C5)cn4c3)cc(C)c2n1` [Compound 215, 6-(2-((2S,4r,6R)-2,6-dimethylpiperidin-4-yl)-8-fluoroimidazo[1,2-a]pyridin-6-yl)-2,8-dimethylimidazo[1,2-b]pyridazine] gave an IC50 of less than 100 nM.

The molecule `Cc1cn2nc(-c3cc(F)c4nn(C5CCNCC5)cc4c3)cc(C(F)F)c2n1` [Compound 350, 8-(difluoromethyl)-6-[7-fluoro-2-(4-piperidyl)indazol-5-yl]-2-methyl-imidazo[1,2-b]pyridazine] gave an IC50 of less than 100 nM.

The molecule `CCN1CCC(N(C)c2nc3c(F)cc(-c4cc(C)c5nc(C)cn5n4)cc3o2)CC1C` (stereo not drawn) [Compound 503, 6-(2,8-dimethylimidazo[1,2-b]pyridazin-6-yl)-N-(1-ethyl-2-methylpiperidin-4-yl)-4-fluoro-N-methylbenzo[d]oxazol-2-amine] showed an IC50 of less than 100 nM.

The molecule `CCN1CCC(c2nc3cc(-c4cc(C)c5nc(C)cn5n4)cc(F)c3[nH]2)CC1` [Compound 425, 6-(2-(1-ethylpiperidin-4-yl)-7-fluoro-1H-benzo[d]imidazol-5-yl)-2,8-dimethylimidazo[1,2-b]pyridazine] had a half-inhibitory concentration (IC50) of 100 to 1000 nM.

As for `COc1cc(-c2cc(C)c3nc(C)cn3n2)cn2cc(C3CCNCC3)nc12` [Compound 538, 6-(8-methoxy-2-(piperidin-4-yl)imidazo[1,2-a]pyridin-6-yl)-2,8-dimethylimidazo[1,2-b]pyridazine], the concentration for half-maximal inhibition (IC50) is less than 100 nM.

Turning to `Cn1cc2cc(-c3cc(F)c4nc([C@H]5CNCCO5)cn4c3)cc(F)c2n1` (single isomer, unassigned) [Compound 70], the IC50 was 1000 to 9000 nM.

`Cc1nc2c(F)cc(-c3cc(F)c4[nH]c(C5CCNCC5)nc4c3)cn2n1` [Compound 149, 8-fluoro-6-(7-fluoro-2-(piperidin-4-yl)-1H-benzo[d]imidazol-5-yl)-2-methyl-[1,2,4]triazolo[1,5-a]pyridine] had a half-inhibitory concentration (IC50) of 1000 to 9000 nM.

In the case of `Cc1cn2nc(-c3cc(F)c4nc(NC(=O)CN5CCCCC5)cn4c3)cc(C)c2n1` [Compound 275, N-(6-(2,8-dimethylimidazo[1,2-b]pyridazin-6-yl)-8-fluoroimidazo[1,2-a]pyridin-2-yl)-2-(piperidin-1-yl)acetamide], the IC50 was less than 100 nM.

Molecule `Cc1cn2nc(-c3cc(F)c4nc(C5CCN(C6CCC6)CC5)nn4c3)cc(C)c2n1` [Compound 437, 2-(1-cyclobutylpiperidin-4-yl)-6-(2,8-dimethylimidazo[1,2-b]pyridazin-6-yl)-8-fluoro-[1,2,4]triazolo[1,5-a]pyridine] gave an IC50 of 100 to 1000 nM.

`Cc1cn2nc(-c3cc(F)c4nc([C@H]5C[C@]6(CN[C@@H](C)C6)C5)cn4c3)cc(C)c2n1` (single isomer, unassigned) [Compound 177, 6-(8-fluoro-2-((2S*,4r,7S*)-7-methyl-6-azaspiro[3.4]octan-2-yl)imidazo[1,2-a]pyridin-6-yl)-2,8-dimethylimidazo[1,2-b]pyridazine] showed a concentration for half-maximal inhibition (IC50) of less than 100 nM.

Regarding `Cc1cn2nc(-c3cc(F)c4nn(C5CC6(CCNCC6)C5)nc4c3)cc(C)c2n1` [Compound 395, 6-(2,8-dimethylimidazo[1,2-b]pyridazin-6-yl)-4-fluoro-2-(7-azaspiro[3.5]nonan-2-yl)-2H-benzo[d][1,2,3]triazole], the IC50 was less than 100 nM.

`Cc1cn2cc(-c3cc(F)c4[nH]c(C5CCNCC5)nc4c3)cc(Cl)c2n1` [Compound 144, 5-(8-chloro-2-methylimidazo[1,2-a]pyridin-6-yl)-7-fluoro-2-(piperidin-4-yl)-1H-benzo[d]imidazole]: the IC50 fell in the range of 1000 to 9000 nM.

As for `Cc1cc(-c2cc(F)c3nc(C4CCN(C)CC4)cn3c2)cc2cn(C)nc12` [Compound 6, 5-(8-fluoro-2-(1-methylpiperidin-4-yl)imidazo[1,2-a]pyridin-6-yl)-2,7-dimethyl-2H-indazole], the IC50 fell in the range of 100 to 1000 nM.

Turning to `Cc1cn2nc(-c3cc(F)c4nc(NC(=O)C5CCCN(C)C5)nn4c3)cc(C)c2n1` (single isomer, unassigned) [Compound 326], the IC50 is 100 to 1000 nM.

`Fc1cc(-c2ccc3nn(C(F)F)cc3c2)cn2cc(C3CCNCC3)nc12` [Compound 36, 2-(difluoromethyl)-5-(8-fluoro-2-(piperidin-4-yl)imidazo[1,2-a]pyridin-6-yl)-2H-indazole] showed an IC50 of 1000 to 9000 nM.

As to `Cc1cn2nc(-c3cc(F)c4nc(NC(=O)C5CN(C6CC6)C5)cn4c3)cc(C)c2n1` [Compound 265, 1-cyclopropyl-N-(6-(2,8-dimethylimidazo[1,2-b]pyridazin-6-yl)-8-fluoroimidazo[1,2-a]pyridin-2-yl)azetidine-3-carboxamide], the IC50 was less than 100 nM.

For `Cc1cn2cc(-c3cc(F)c4nc(C5CCNCC5)cn4c3)cc(C)c2n1` [Compound 95, 8-fluoro-2′,8′-dimethyl-2-(piperidin-4-yl)-6,6′-biimidazo[1,2-a]pyridine], the concentration for half-maximal inhibition (IC50) was 100 to 1000 nM.

With `Cc1cn2nc(-c3cc(F)c4nc(NC(=O)[C@@H]5CN[C@H]5C)cn4c3)cc(C)c2n1` (stereo in doubt) [Compound 287, rel-(2R,3S)-N-(6-(2,8-dimethylimidazo[1,2-b]pyridazin-6-yl)-8-fluoroimidazo[1,2-a]pyridin-2-yl)-2-methylazetidine-3-carboxamide], the concentration for half-maximal inhibition (IC50) is less than 100 nM.

`Cc1cn2nc(-c3cc(F)c4nc(C5CCNC(C)C5)cn4c3)cc(C)c2n1` (stereo not drawn) [Compound 60, 6-(8-fluoro-2-(2-methylpiperidin-4-yl)imidazo[1,2-a]pyridin-6-yl)-2,8-dimethylimidazo[1,2-b]pyridazine] yielded a concentration for half-maximal inhibition (IC50) of less than 100 nM.

`Cc1cn2nc(-c3cc(F)c4nc(C5CCN(CC6CC6)CC5)cn4c3)cc(C)c2n1` [Compound 165, 6-(2-(1-(cyclopropylmethyl)piperidin-4-yl)-8-fluoroimidazo[1,2-a]pyridin-6-yl)-2,8-dimethylimidazo[1,2-b]pyridazine] returned an IC50 of less than 100 nM.

Consider `Cc1cn2nc(-c3cc(F)c4nc(NC(=O)C5CCCNC5)cn4c3)cc(C)c2n1` (stereo not drawn) [Compound 248, N-(6-(2,8-dimethylimidazo[1,2-b]pyridazin-6-yl)-8-fluoroimidazo[1,2-a]pyridin-2-yl)piperidine-3-carboxamide], for which the IC50 was less than 100 nM.

For the molecule `Cn1nc2cc(-c3cc(F)c4nc(C5CCNCC5)cn4c3)cc(F)c2n1` [Compound 87, 4-fluoro-6-(8-fluoro-2-(piperidin-4-yl)imidazo[1,2-a]pyridin-6-yl)-2-methyl-2H-benzo[d][1,2,3]triazole], the IC50 lay within 100 to 1000 nM.

The molecule `CN1C(=O)COc2cc(-c3cc(F)c4nc(C5CCNCC5)cn4c3)cnc21` [Compound 73, 7-(8-fluoro-2-(piperidin-4-yl)imidazo[1,2-a]pyridin-6-yl)-4-methyl-2H-pyrido[3,2-b][1,4]oxazin-3(4H)-one] came in with an IC50 of 1000 to 9000 nM.

As to `Cc1cn2nc(-c3cc(F)c4nc([C@H]5[C@@H]6CN(CC7CC7)C[C@@H]65)cn4c3)cc(C)c2n1` [Compound 212, 6-(2-((1R,5S,6r)-3-(cyclopropylmethyl)-3-azabicyclo[3.1.0]hexan-6-yl)-8-fluoroimidazo[1,2-a]pyridin-6-yl)-2,8-dimethylimidazo[1,2-b]pyridazine], the 50% inhibitory concentration (IC50) was less than 100 nM.

Usually IC50 stands for the concentration that inhibits the measured activity by half. A low value points to greater potency.
